In one data set the test system is U1 cells. Put plainly: MTS staining for cell viability in U1 cell assay. It counts as cell-based. The note with it: analogs, Table 8, MTS, read-out: TC50 (the source's name). The protocol:
(§1) At the time of the assay, cells were collected by centrifugation and counted by hemacytometer. If cell viability by Trypan Blue dye exclusion was less than 70% the assay was terminated. The cells were adjusted to 5×10^4 cells/mL and 100 μL placed in 96 well plates with 100 μL media containing a final concentration of 5 ng/mL TNF-α and the test compound. Cultures were incubated for 3 days and supernatants harvested. Compound toxicity was determined by MTS dye reduction. Virus expression was measured by supernatant reverse transcriptase activity.
At assay termination, the assay plates were stained with the soluble tetrazolium-based dye MTS (CellTiter 96 Reagent, Promega) to determine cell viability and quantify compound toxicity as described for the PBMC assay.
(§2) Compounds were tested in the U1 latency assay using the maximum high-test concentration possible based on the supplied stocks which are listed in table 3. Compounds were tested using the maximum high-test concentration possible based on the supplied stocks. Compounds were prepared at a 2× high-test concentration by combining drug stock with tissue culture media at a ratio of 5 μL of drug to 995 μL of media. This 2× high-test sample was subsequently serially diluted in tissue culture media using 1/2 log dilutions. This series of 2× concentrated drug was subsequently diluted 1:1 by combining with an equal volume of cells in media in the 96-well plates used for the assay. Temacrazine a known inhibitor of HIV transcription was used as a control compound that is active in the post-integration part of the HIV life cycle.
(§3) Compounds were tested using the maximum high-test concentration possible based on the supplied stocks. Compounds were prepared at a 2× high-test concentration by combining drug stock with tissue culture media at a ratio of 5 μL of drug to 995 μL of media. This 2× high-test (HT) sample was subsequently serially diluted in tissue culture media using 1/2 log dilutions. This series of 2× concentrated drug was subsequently diluted 1:1 by combining with an equal volume of cells in media in the 96-well plates used for the assay.

The test system of data set [1] is U1 cells latently infected with HIV-1. The data set is described as follows: U1 latency activation assay (TNF-α induced, supernatant reverse transcriptase). The note with it: U1 cell assay, analogs, Table 8. It counts as cell-based. The protocol:
U1 cells were obtained from the AIDS Research and Reference Reagent Program and maintained under standard culture conditions in RPMI 1640 supplemented with 10% fetal bovine serum (heat inactivated), 2 mM L-glutamine, 100 U/mL penicillin and 100 μg/mL streptomycin. U1 cells are derived from the histocytic leukemia cell line U937, and contain an integrated copy of a cytokine and/or phorbol inducible provirus (HIV-1IIIB). Cultures were maintained in such a way as to ensure exponential growth of the populations. Addition of TNF-α to the cell culture induces HIV-1, so that inhibition of virus production indicates an inhibition of a post-integration function of the HIV-1 life cycle. This is where an inhibitor of Rev function would be expected to act. […]
as §1
Reverse transcriptase was assayed to measure virus particle release as described above for the PBMC assay.
as §2, §3

On to `Cc1n[nH]c2nc3ccc(Cl)cc3c(-c3ccccc3)c12` [Compound 111], for which the CC50 with U1 cells is > 50 µM. Further, inhibition in data set [1] was half-maximal at 1.7 µM (IC50).
For the molecule `Cc1n[nH]c2nc3ccc(Br)cc3c(-c3ccccc3)c12` [Compound 112], the CC50 with U1 cells is > 50 µM. Moreover, it took 1.08 µM to reach half-maximal inhibition in data set [1] (IC50).
With `COc1cc2cc(C(=O)Nc3ccccc3)c(N)nc2cc1OC` [Compound 113], in the data set on U1 cells, the CC50 was > 75 µM. In addition, the IC50 (as a rule, the concentration at which inhibition is half-maximal) in data set [1] was found to be 27.4 µM.
In the case of `COc1cc2cc3c(=O)[nH]c(-c4ccc(C)cc4)nc3nc2cc1OC` [Compound 114], in the data set with U1 cells, the CC50 is > 75 µM. The same molecule came in with an IC50 in data set [1] of 14.4 µM.
On to `COc1ccc2nc3c(c(N)c2c1)CCCC3` [Compound 211], for which the CC50 in the data set with U1 cells was 48.5 µM. The molecule further had an IC50 in data set [1] of 9.11 µM.
The like results for `N#Cc1c(C(F)(F)F)nc2ccc(F)cc2c1N` [Compound 212] were, in that order, 28.6 µM and 0.484 µM.
On to `Nc1c2c(nc3ccc([N+](=O)[O-])cc13)CCCC2=O` [Compound 213], for which, in the data set with U1 cells, the CC50 was 58.6 µM. Moreover, it took 0.826 µM to reach half-maximal inhibition in data set [1] (IC50).
Consider `C=CCc1c(C)nc2ccc(OC)cc2c1N` [Compound 214], for which the CC50 with U1 cells was > 75 µM. Half-maximal inhibition in data set [1] (IC50) was put at 9.19 µM.
The like results for `COc1ccc(-c2c(C(C)=O)c(C)nc3sc(C(N)=O)c(N)c23)cc1` [Compound 311] were, in that order, > 75 µM and 1.65 µM.
In the same order, the values of `CCc1c(C)nc2sc(C(=O)c3ccc(Cl)cc3)c(N)c2c1C` [Compound 313] are > 50 µM and > 50 µM.
The like results for `Cc1ccc2c(N)c(C(N)=O)sc2n1` [Compound 314] were, in that order, > 75 µM and 2.11 µM.
In the case of `Cc1nc2sc(C(N)=O)c(N)c2c(C)c1CC(=O)c1ccccc1` [Compound 315], the CC50 with U1 cells is > 75 µM. Moreover, in data set [1], the IC50 stood at 0.75 µM.
The like results for `NC(=O)c1sc2nc(-c3cccnc3)ccc2c1N` [Compound 316] were, in that order, > 75 µM and 23.4 µM.
With `NC(=O)c1sc2nc(-c3cccs3)cc(C(F)(F)F)c2c1N` [Compound 317], the CC50 in the data set on U1 cells is > 75 µM. For the same molecule, the IC50 in data set [1] is > 75 µM.
For the molecule `Cc1cc(C(F)(F)F)c2c(N)c(C(N)=O)sc2n1` [Compound 318], the CC50 in the data set on U1 cells is > 75 µM. The IC50 in data set [1] was < 0.237 µM.
`CN1CCc2nc3sc(C(N)=O)c(N)c3cc2C1` [Compound 319]: the CC50 in the data set with U1 cells was > 37.5 µM. Moreover, in data set [1], inhibition was half-maximal at 20.2 µM (IC50).
For the molecule `COCc1cc(C)nc2sc(C(N)=O)c(N)c12` [Compound 320], in the data set on U1 cells, the CC50 is > 75 µM. In addition, the IC50 in data set [1] was determined as 0.522 µM.
For `NC(=O)c1sc2nc3c(cc2c1N)CCCC3` [Compound 321], in the data set on U1 cells, the CC50 is > 75 µM. This molecule also displayed an IC50 in data set [1] of 1.94 µM.
In the case of `NC(=O)c1sc2nc(-c3cccs3)cc(-c3ccc(F)cc3)c2c1N` [Compound 322], the CC50 in the data set with U1 cells is 17.4 µM. Also, in data set [1], the IC50 was 8.84 µM.
With `Cc1ccc(-c2cc(-c3ccccc3)nc3sc(C(N)=O)c(N)c23)cc1` [Compound 323], the CC50 in the data set with U1 cells turned out to be 22.6 µM. Further, in data set [1], half-maximal inhibition (IC50) required 0.745 µM.
As to `NC(=O)c1sc2nc3c(cc2c1N)CCC3` [Compound 324], in the data set on U1 cells, the CC50 is > 75 µM. Further, the IC50 in data set [1] stood at 2.19 µM.
Turning to `CN(C)c1ccnc2sc(C(N)=O)c(N)c12` [Compound 325], in the data set on U1 cells, the CC50 was > 75 µM. In data set [1], the IC50 was determined as 0.281 µM.
`CCOC(=O)c1c2c(nc3sc(C(N)=O)c(N)c13)CCCC2` [Compound 327]: the CC50 in the data set on U1 cells stood at 65.8 µM. In data set [1], the IC50 turned out to be 0.601 µM.
Consider `Cc1cc2c(N)c(C(N)=O)sc2nc1C` [Compound 328], for which the CC50 in the data set with U1 cells stood at 37 µM. The same molecule yielded an IC50 in data set [1] of 1.06 µM.
Turning to `CCCc1ccc2c(N)c(C(N)=O)sc2n1` [Compound 329], in the data set on U1 cells, the CC50 was determined as 58.4 µM. This molecule registered an IC50 in data set [1] of 2.03 µM.
On to `Cc1cc2c(N)c(C(N)=O)sc2nc1-c1ccc(F)cc1` [Compound 330], for which the CC50 with U1 cells is > 75 µM. For the same molecule, in data set [1], the midpoint of inhibition, the IC50, lay at 6.91 µM.
Consider `CCc1c(C)nc2sc(C(=O)NCC(=O)O)c(N)c2c1C` [Compound 331], for which, in the data set on U1 cells, the CC50 is > 75 µM. In data set [1], this molecule gave an IC50 of 66 µM.

The values above are taken from patent publication US7875604B2, “Compounds that inhibit HIV particle formation” (University of Virginia Patent Foundation, priority 2004, dated 2011).
